inhibition, Inhibition and Activity data for 3 molecules are collected here from ChEMBL document CHEMBL1146031, “N-acylated sulfonamide sodium salt: a prodrug of choice for the bifunctional 2-hydroxymethyl-4-(5-phenyl-3-trifluoromethyl-pyrazol-1-yl) benzenesulfonamide class of COX-2 inhibitors” (Bioorg Med Chem Lett, 2006).

For assay [1], the system named is Rattus norvegicus. Kind of assay: Anti-inflammatory activity in orally dosed Wistar rat assessed as reduction of carrageenan-induced paw edema at 0.3 mg/kg, po. It counts as functional. For orientation: Carrageenan injected into the paw causes an acute inflammation.
The target of assay [2] is Prostaglandin G/H synthase 1 (Ovis aries) (UniProt P05979). Kind of assay: Inhibition of microsomal COX1 at 10 uM.
Assay [3] addresses T1, Prostaglandin G/H synthase 2 (Homo sapiens) (UniProt P35354).
T1 sequence (whole entry): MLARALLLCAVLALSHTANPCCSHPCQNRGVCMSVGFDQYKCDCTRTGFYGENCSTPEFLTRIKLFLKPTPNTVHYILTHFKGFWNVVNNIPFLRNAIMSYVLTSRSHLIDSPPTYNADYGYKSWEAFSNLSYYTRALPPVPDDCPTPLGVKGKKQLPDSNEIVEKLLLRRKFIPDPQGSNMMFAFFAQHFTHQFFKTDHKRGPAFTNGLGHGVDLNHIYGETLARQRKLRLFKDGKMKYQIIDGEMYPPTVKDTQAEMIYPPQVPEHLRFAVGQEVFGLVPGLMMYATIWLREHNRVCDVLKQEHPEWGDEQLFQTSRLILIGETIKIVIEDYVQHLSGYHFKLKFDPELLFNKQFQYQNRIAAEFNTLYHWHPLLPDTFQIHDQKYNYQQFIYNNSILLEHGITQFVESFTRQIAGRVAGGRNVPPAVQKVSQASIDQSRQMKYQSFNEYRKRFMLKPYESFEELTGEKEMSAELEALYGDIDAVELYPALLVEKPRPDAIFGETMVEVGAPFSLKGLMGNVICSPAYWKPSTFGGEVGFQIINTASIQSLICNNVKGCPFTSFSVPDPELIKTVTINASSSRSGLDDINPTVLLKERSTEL
Put plainly: Inhibition of human recombinant COX2 expressed in sf9 cells infected with baculovirus at 10 uM.

Assay [4] relates to Rattus norvegicus. Kind of assay: Anti-inflammatory activity in orally dosed Wistar rat assessed as reduction of carrageenan-induced paw edema. The settings on record: po, 30 mg/kg. It counts as functional.
Assay [5] has as its system Rattus norvegicus. Put plainly: Anti-inflammatory activity in orally dosed Wistar rat assessed as reduction of carrageenan-induced paw edema at 10 mg/kg, po. Also noted: dose 10 mg/kg. In kind it is functional, organism-based.
Assay [6] has as its system Rattus norvegicus. Kind of assay: Anti-inflammatory activity in orally dosed Wistar rat assessed as reduction of carrageenan-induced paw edema at 3 mg/kg, po. It counts as functional, organism-based. Also noted: dose 3 mg/kg.
For assay [7], the system named is Rattus norvegicus. Put plainly: Anti-inflammatory activity in orally dosed Wistar rat assessed as reduction of carrageenan-induced paw edema at 1 mg/kg, po. In kind it is functional, organism-based. Also noted: dose 1 mg/kg.

The source made the active and inactive calls. No cut-off for these calls is given here.

Chain of Prostaglandin G/H synthase 1 (Ovis aries) (P05979 whole entry, looked up): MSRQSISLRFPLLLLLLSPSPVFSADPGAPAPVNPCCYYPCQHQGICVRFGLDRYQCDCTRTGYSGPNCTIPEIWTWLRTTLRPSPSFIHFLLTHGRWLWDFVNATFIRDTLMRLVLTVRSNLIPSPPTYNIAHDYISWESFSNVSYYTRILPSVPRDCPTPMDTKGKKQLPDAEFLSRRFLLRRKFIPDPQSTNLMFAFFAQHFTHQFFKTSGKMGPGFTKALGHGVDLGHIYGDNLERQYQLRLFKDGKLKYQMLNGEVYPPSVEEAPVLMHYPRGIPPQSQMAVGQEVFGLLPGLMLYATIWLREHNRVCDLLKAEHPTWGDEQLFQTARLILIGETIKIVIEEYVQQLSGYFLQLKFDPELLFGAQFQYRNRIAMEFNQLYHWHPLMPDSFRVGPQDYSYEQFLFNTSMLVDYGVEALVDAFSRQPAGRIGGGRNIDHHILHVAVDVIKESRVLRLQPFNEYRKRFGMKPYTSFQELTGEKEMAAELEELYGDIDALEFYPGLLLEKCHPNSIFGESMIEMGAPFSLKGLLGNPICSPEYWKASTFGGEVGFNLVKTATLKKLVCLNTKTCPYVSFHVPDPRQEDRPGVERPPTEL

As usually defined, the inhibition is how much of the control response was suppressed. On to `CCC(=O)[N-]S(=O)(=O)c1ccc(-c2c(-c3ccccc3)noc2C)cc1.[Na+]` [PARECOXIB SODIUM], for which the inhibition at 0.3 mg/kg in the assay on Rattus norvegicus [1] was found to be 98%.
A word on the Inhibition: it is the percentage by which the read-out fell short of the control. For the molecule `CCC(=O)[N-]S(=O)(=O)c1ccc(-n2nc(C(F)(F)F)cc2-c2ccc3c(c2)CCC3)cc1CO.[Na+]`, the inhibition in assay [2] is 0%; in assay [3] it was 22%. Further, the Inhibition with Rattus norvegicus [4] is 52%. Also, the outcome in the assay on Rattus norvegicus [5], with Rattus norvegicus [6] and with Rattus norvegicus [7] was inactive.
With `CCC(=O)OCc1cc(-n2nc(C(F)(F)F)cc2-c2ccc(SC)cc2)ccc1S(N)(=O)=O`, the inhibition turned out to be 0% in assay [2] and 40% in assay [3]. The Inhibition with Rattus norvegicus [4] was 60%. The result in the assay on Rattus norvegicus [5], in the assay on Rattus norvegicus [6] and in the assay on Rattus norvegicus [7] was inactive.
